Test results reported in patent publication EP4782453A1 (Beyang Therapeutics Co., Ltd., priority 2023, dated 2025).
Where two headings read alike, the source gives them in different places.

Tests used:
Menin-MLL = molecular target: T1, Menin-MLL (Homo sapiens, UniProt O00255); assay: Inhibitory activity against Menin-MLL binding (fluorescence polarization); conditions: 150 nM His-Menin, 15 nM FITC-MLL, 25°C for 60 min
T1 construct: His-Menin (M1-L615 end); purchased BIORTUS BP9210
T1 sequence (O00255 1-615 isoform O00255-1): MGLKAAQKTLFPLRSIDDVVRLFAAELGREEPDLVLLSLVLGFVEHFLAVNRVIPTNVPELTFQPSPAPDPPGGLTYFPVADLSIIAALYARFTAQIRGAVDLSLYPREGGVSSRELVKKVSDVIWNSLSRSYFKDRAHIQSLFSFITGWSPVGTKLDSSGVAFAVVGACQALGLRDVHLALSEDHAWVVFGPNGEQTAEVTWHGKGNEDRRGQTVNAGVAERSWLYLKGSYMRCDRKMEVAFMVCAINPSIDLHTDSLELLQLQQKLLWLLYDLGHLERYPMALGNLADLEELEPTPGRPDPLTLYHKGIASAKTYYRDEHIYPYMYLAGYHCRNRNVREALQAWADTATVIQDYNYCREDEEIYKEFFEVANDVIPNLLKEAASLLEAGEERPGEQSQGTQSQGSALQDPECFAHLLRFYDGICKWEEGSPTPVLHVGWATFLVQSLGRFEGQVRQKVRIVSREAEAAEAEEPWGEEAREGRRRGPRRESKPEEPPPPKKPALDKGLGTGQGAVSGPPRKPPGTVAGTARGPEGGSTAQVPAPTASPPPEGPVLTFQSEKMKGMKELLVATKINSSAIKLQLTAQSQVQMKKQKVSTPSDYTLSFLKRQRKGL
Method in brief: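 His-Menin (M1-L615, 150 nM) preincubated with compound 15 min at 25 °C in HEPES pH 7.5, 50 mM NaCl, 1 mM DTT, 0.01% BSA, then 15 nM FITC-MLL4-43 peptide added for 60 min at 25 °C. Fluorescence polarization read; IC50 from 4-parameter logistic fit, duplicates.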

[1] = tested on: MV-4-11 (carrying MLL-AF4); assay: Inhibition of proliferation of human tumor cells (Alamar Blue, 7 days), MV-4-11; assay type: cell-based; conditions: Homo sapiens, MV4-11, 168 h, MV-4-11 cells (carrying MLL-AF4), method calls the value GI50
Method in brief: (§1)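 Cells seeded at 4,000/well (MV-4-11, MOLM-13) or 3,000/well (KG-1a), treated in duplicate with serial compound dilutions for 7 days at 37°C, 5% CO2. Alamar Blue fluorescence read on Day 7, normalised to 0.1% DMSO Day-7 (high) and Day-0 (low) controls; GI50 derived.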

[2] = tested on: MOLM-13 (carrying MLL-AF9); assay: Inhibition of proliferation of human tumor cells (Alamar Blue, 7 days), MOLM-13; assay type: cell-based; conditions: Homo sapiens, MOLM-13 cells (carrying MLL-AF9), method calls the value GI50
Method in brief: as §1

MEIS1 gene expression [3] = assay: Inhibition of MEIS1 gene expression in human tumor cells (qRT-PCR), MV-4-11; assay type: cell-based; conditions: MV4-11, MV-4-11 (carrying MLL-AF4), 48 hours of incubation, relative MEIS1 gene expression vs GAPDH, read-out: MV-4-11 MEISI EC50
Text: (§2) Experimental Example 3: Evaluation of Inhibitory Activity of Compounds Against MEISI Gene Expression in Human Tumor Cells
(§3) The effect of test samples on MEIS1 gene expression in vitro cultured human leukemia cells MV-4-11 (carrying MLL-AF4), MOLM-13 (carrying MLL-AF9), and OCI-AML3 (carrying NPM1c) was studied.
(§4) • Human acute lymphoblastic leukemia cells MV-4-11, purchased from American Type Culture Collection, Catalog Number: CRL-9591; • Human acute myeloid leukemia cells MOLM-13, purchased from COBIOER BIOSCIENCES CO., LTD, Catalog Number: CBP60678; • Human acute myeloid leukemia cells OCI-AML3, purchased from COBIOER BIOSCIENCES CO., LTD, Catalog Number: CBP60817; • MEIS1 Primer/Probe, purchased from IDT, Catalog Number: 40831613; and • GAPDH Primer/Probe, purchased from IDT, Catalog Number: 22214836.
(§5) MV-4-11 cells were cultured in an IMDM medium containing 10% fetal bovine serum, or MOLM-13 and OCI-AML3 cells were cultured in an RPMI-1640 medium containing 20% fetal bovine serum, each supplemented with 100 U·mL^-1 penicillin and 100 µg·mL^-1 streptomycin. These cells were cultured at 37°C with 5% CO2. The suspensions of individual cell lines were prepared in their respective media and seeded into 48-well plates at a density of 100,000 cells/well. On the day of the experiment, a compound stock solution was diluted in a 6-fold gradient using DMSO. Each gradient-diluted stock solution was then further diluted 250-fold with a complete medium to prepare a series of working solutions at different concentrations. Next, 250 µL of working solution (containing the complete medium with a 2-fold serial concentration of the test compound or a positive control compound, or containing a control complete medium) was added to each well. After 48 hours of incubation, cells from the 48-well plate were collected into 1 mL centrifuge tubes, centrifuged at 1000 rpm for 5 minutes, and the complete medium was removed. Cells were washed twice with 1 mL PBS and centrifuged to remove PBS. Total RNA was extracted using the RNeasy Mini Kit (250) (QIAGEN, 74106). The threshold cycle (Ct) value for gene expression was determined using the HiScript II U+ One Step qRT-PCR Probe Kit (Vazyme) (Vazyme, Q223-01), with 3 replicates per sample. The prepared reaction mixture was placed in an ABI 7500 real-time PCR instrument, and the reaction proceeded following the procedures below. [formula]
(§6) Next, for the relative MEIS1 gene expression, the concentration (EC50) that inhibits 50% of relative MEIS1 gene expression was calculated using GraphPad Prism 8 software.

MEIS1 gene expression [4] = assay: Inhibition of MEIS1 gene expression in human tumor cells (qRT-PCR), MOLM-13; assay type: cell-based; conditions: MOLM-13 (carrying MLL-AF9), 48 hours of incubation, relative MEIS1 gene expression vs GAPDH
Text: as §2, §3, §4, §5, §6

KG-1a (wild-type MLL) = assay: Inhibition of proliferation of human tumor cells (Alamar Blue, 7 days), KG-1a control cell line; assay type: cell-based; conditions: 168 h, KG-1a cells (wild-type MLL, control cell line), method calls the value GI50
Text: Experimental Example 2: Evaluation of Inhibitory Activity of Compounds Against Proliferation of Human Tumor Cells
• Human acute lymphoblastic leukemia cells MV-4-11, purchased from American Type Culture Collection, Catalog Number: CRL-9591; • Human acute myeloid leukemia cells MOLM-13, purchased from COBIOER BIOSCIENCES CO., LTD, Catalog Number: CBP60678; • Human acute myeloid leukemia cells KG-1a, purchased from American Type Culture Collection, Catalog Number: CCL-246.1; • Inverted Microscope, purchased from Olympus Tokyo; • Countess™ Automated Cell Counter, purchased from Invitrogen, Model: C10281; and • Multilabel Reader, purchased from Bio-Tek, Model: Synergy HT.
MV-4-11 cells were cultured in an IMDM medium containing 10% fetal bovine serum, KG-a cells were cultured in an IMDM medium containing 20% fetal bovine serum, or MOLM-13 cells were cultured in an RPMI-1640 medium containing 20% fetal bovine serum, each supplemented with 100 U·mL^-1 penicillin and 100 µg·mL^-1 streptomycin. These cells were cultured at 37°C with 5% CO2. The suspensions of individual cell lines were prepared in their respective media and seeded into 96-well plates at a density of 4,000 cells/well for MV-4-11 and MOLM-13 cells, or 3,000 cells/well for KG-1a cells. On the day of the experiment, a compound stock solution was diluted in a 3-fold or 4-fold gradient using DMSO. Each gradient-diluted stock solution was then further diluted 250-fold with a complete medium to prepare a series of working solutions at different concentrations. Subsequently, 100 µL of working solution (containing a 2-fold concentration series of the test compound) was added to each well, with duplicate wells set up for each concentration.
Seven days after compound addition (on Day 7), an Alamar Blue assay reagent (MCE, HY-111391 / CS-0040317) was added to measure the fluorescence intensity in each well. Wells containing the cells in the growth medium supplemented with 0.1% DMSO (Day 7) served as high-read control wells. The readouts from the wells containing the cells in the growth medium supplemented with 0.1% DMSO on the day of compound addition (Day 0) served as low-reading control well. GraphPad Prism software was used to calculate the concentration required to inhibit 50% of cell proliferation (GI50), which serves as a cell proliferation inhibition activity index.

[5] = fluorescence polarization, read-out: Menin-MLL IC50
[6] = Menin-MLL IC50, fluorescence polarization

| IC50 (Menin-MLL; [5]) | IC50 [1] | IC50 ([2]; 168 h) | EC50 (MEIS1 gene expression [3]) | EC50 (MEIS1 gene expression [4]) | SMILES | IC50 (Menin-MLL; [6]) | IC50 ([2]; MOLM-13, 168 h) | IC50 (KG-1a (wild-type MLL)) |
| --- | --- | --- | --- | --- | --- | --- | --- | --- |
| 10.7 nM | 6.4 nM | 46 nM | 53 nM |  | Cc1nc(F)c2c(-c3ccc(F)cc3C(=O)N3CCOC[C@H]3C)cc(C3CN([C@@H](CO[C@H]4CCCN(C)C4)C(C)C)C3)cn12 [Example 321-1, (3R)-4-[5-fluoro-2-(1-fluoro-3-methyl-6-{1-[(2R)-3-methyl-1-{[(3S)-1-methylpiperidin-3-yl]oxy}butan-2-yl]azacyclobutan-3-yl}imidazo[1,5-a]pyridin-8yl)benzoyl]-3-methylmorpholine] |  |  |  |
| 8.5 nM | 6.6 nM | 40 nM |  |  | Cc1nc(F)c2c(-c3ccc(F)cc3C(=O)N3CCOC[C@H]3C)cc(C3CN([C@H](CC[C@@H]4CNCCO4)C(C)C)C3)cn12 [Example 245-1, (3R)-4-[5-fluoro-2-(1-fluoro-3-methyl-6-{1-[(3R)-4-methyl-1-[(2R)-morpholin-2-yl]pentan-3-yl]azacyclobutan-3-yl}imidazo[1,5-a]pyridin-8yl)benzoyl]-3-methylmorpholine] |  |  | 20000 nM |
| 7 nM | 5.3 nM | 13 nM |  |  | Cc1nc(F)c2c(-c3ccc(F)cc3C(=O)N3CCOC[C@H]3C)cc(C3CN([C@@H](C)C4CCN(C(=O)CC#N)CC4)C3)cn12 [Example 263-2] |  |  | 20000 nM |

The remaining lines, values behind:

| SMILES | IC50 (Menin-MLL; [5]) | IC50 [1] | IC50 ([2]; 168 h) | EC50 (MEIS1 gene expression [3]) | EC50 (MEIS1 gene expression [4]) | IC50 (Menin-MLL; [6]) | IC50 ([2]; MOLM-13, 168 h) | IC50 (KG-1a (wild-type MLL)) |
| --- | --- | --- | --- | --- | --- | --- | --- | --- |
| CC(=O)N1CCN(CCC[C@H](C(C)C)N2CC(c3cc(-c4ccc(F)cc4C(=O)N4CCOC[C@H]4C)c4c(F)nc(C)n4c3)C2)[C@@H](C)C1 [Example 329] | 11 nM |  |  | 63 nM | 17.9 nM |  |  |  |
| CC(=O)N1CCC(CN2CC(c3cc(-c4ccc(F)cc4C(=O)N4CCC[C@H]4C)c4c(F)nc(C)n4c3)C2)CC1 [Example 189] | 33 nM | 29 nM | 44 nM | 89 nM |  |  |  |  |
| Cc1nc(F)c2c(-c3ccc(F)cc3C(=O)N3CCC[C@H]3C)cc(C3CN(C(C)C4CCOCC4)C3)cn12 (stereo partly drawn) [Example 188] | 12 nM | 9.1 nM | 27 nM | 42 nM |  |  |  |  |
| CCN(C(=O)c1cc(F)ccc1-c1cc(C2CN(C(=O)C3NC4CCC3CC4)C2)cn2c(C)ncc12)C(C)C [Example 90, N-ethyl-5-fluoro-2-(3-methyl-6-{1-[(1R,3S,4S)-2-azabicyclo[2.2.2]octan-3-carbonyl]azacyclobutan-3-yl}imidazo[1,5-a]pyridin-8-yl)-N-(isopropyl)benzamide] |  | 20 nM |  |  |  | 11 nM | 99 nM | 20000 nM |
| CCS(=O)(=O)N[C@H]1CC[C@H](CN2CC(c3cc(-c4ccc(F)cc4C(=O)N4CCOC[C@H]4C)c4c(F)nc(C)n4c3)C2)CC1 [Example 145, N-[(1r,4r)-4-{[3-(1-fluoro-8-{4-fluoro-2-[(3R)-3-methylmorpholin-4-carbonyl]phenyl}-3-methylimidazo[1,5-a]pyridin-6-yl)azacyclobutan-1-yl]methyl}cyclohexyl]ethan-1-sulfonamide] |  | 13 nM |  |  |  | 18 nM | 29.5 nM | 19000 nM |
| CCN(C(=O)c1cc(F)ccc1-c1cc(C2CCN(C[C@H]3CC[C@H](NS(=O)(=O)CC)CC3)C2)cn2c(C)ncc12)C(C)C (mixture of isomers) [Example 30, N-ethyl-5-fluoro-2-[3-methyl-6-(1-{[(1r,4r)-4-ethanesulfonamidocyclohexyl]methyl}pyrrolidin-3-yl)imidazo[1,5-a]pyridin-8-yl]-N-(isopropyl)benzamide] |  |  |  | 20 nM |  | 6 nM |  |  |
| Cc1nc(F)c2c(-c3ccc(F)cc3C(=O)N3CCOC[C@H]3C)cc(C3CN([C@H](CC[C@H]4CNCCO4)C(C)C)C3)cn12 [Example 244-1, (3R)-4-[5-fluoro-2-(1-fluoro-3-methyl-6-{1-[(3R)-4-methyl-1-[(2S)-morpholin-2-yl]pentan-3-yl]azacyclobutan-3-yl}imidazo[1,5-a]pyridin-8yl)benzoyl]-3-methylmorpholine] | 9.5 nM | 16 nM | 39 nM |  |  |  |  | 20000 nM |
| Cc1cncc2c(-c3ccc(F)cc3C(=O)N3CCOC[C@H]3C)cc(CC3CN(CC4CCOCC4)C3)n12 [Example 260] | 3 nM | 7.1 nM |  | 7.6 nM |  |  | 10 nM |  |
| CCS(=O)(=O)N[C@H]1CC[C@H](CN2CC(c3cc(-c4ccc(F)cc4C(=O)N4[C@H](C)COC[C@H]4C)c4cnn(C)c4c3)C2)CC1 [Example 168] |  | 32 nM |  |  |  | 32.5 nM | 104 nM | 20000 nM |
